Measurements: patent US20070042020A1, “Composition for the treatment of dysfunctional energy metabolism syndrome” (priority 2003, published 2007)

Tested on: old Labrador Retriever dog that had difficulty in standing and walking
Assay: Exercise ability (walking distance) of a dog under cofactor supplementation
Assay type: in vivo
Procedure: When L-carnitine, acetyl-L-carnitine, with added pantothenate at 0.4 mg/kg body weight were supplemented for one week, exercise ability increased to 2740 yards and, by three weeks, ability was 3807 yards. However, when pantothenate was eliminated for two weeks, exercise ability declined to 350 yards. Then when pantothenate was returned to the L-carnitine and acetyl-L-carnitine combination, his exercise capability returned to more than 3800 yards. This case illustrates the contribution of the various cofactors to physical activity.

| SMILES | exercise ability (distance walked) (after two weeks of acetyl-L-carnitine at 4 mg/kg body weight and no L-carnitine) [yards] | distance it could walk (after one week of L-carnitine at 5 mg/kg body weight, 340 yards before) [yards] |
| --- | --- | --- |
| CC(=O)O[C@H](CC(=O)[O-])C[N+](C)(C)C [acetyl-L-carnitine] | 648 |  |
| C[N+](C)(C)C[C@H](O)CC(=O)[O-] [L-carnitine] |  | 1240 |
